Structures can show the parent of a compound that is named as a salt.
Experiments:
[1] = tested on: HiBiT-tagged Target C protein in K562 cells; assay: HiBiT protein abundance assay, Target C; format: cell-based, human; details: HiBiT-modified K562 cells, 24 hours, luminescence
Protocol: (§1) Compounds described herein were used to screen for effects on quantitative protein abundance using a HiBit assay system (Promega). Quantitative protein abundance was determined by measuring the protein levels of HiBit-tagged protein targets expressed in cell culture via luminescence using the Nano-Glo HiBiT Lytic Detection System, which uses a split complementation assay format to reconstitute NanoBiT enzyme to generate a luminescent signal. A protein abundance assay was developed such that endogenous protein targets could be modified with the HiBiT peptide tag and their abundance could be assessed after compound treatment. Briefly, K562 cell lines containing a HiBiT-modification were treated with various compounds described herein (e.g., compounds of Formulas (I), (II), or (III)). After treatment for 24 hours, the protein abundance of a specific target was determined by measuring luminescence.
(§2) • Promega Nano-Glo HiBiT Lytic Detection System (cat #N3030) • Corning 384-well TC-treated microplates (cat #3570) • Synthego Engineered Cells Knock-In Clones
(§3) Cells were maintained in IMDM with 10% FBS. Before the assay, cells were diluted with […] growth media (IMDM+1% FBS media) and were seeded in a 384-well plate at a density of 10000 cells/well (for each cell line listed in Table 5). Each compound was prepared as a 10-point 3-fold serial dilution in DMSO with the top dose at a final concentration of 10 μM in the well. Unmodified K562 cells were added at the previously specified density with DMSO to serve as an assay baseline and positive control (PC) and DMSO only with the respective modified cell lines was added to the negative control (NC) columns. Final DMSO concentration was kept at or below 0.25%. Treated cell plates were placed in an incubator at 37° C. with 5% CO2 for 24 hours. After 24 hours, 25 μL of Complete HiBit Lytic reagent was added to each well at room temperature (e.g. one plate requiring 10 mL Lytic Buffer, 100 μL LgBiT Protein, 200 μL Lytic Substrate), shaken for 5 minutes at 600 RPM, then left to sit for 10 minutes for signal to stabilize before reading on a Spark Cyto plate reader (Tecan) with a 500 ms measurement time.
(§4) To determine compound effects on protein abundance of each target in Table 5, the percent response for each respective cell line was calculated at each compound concentration as follows:
(§5) For the normalized response at each concentration, a four-parameter logistical regression was fit to the data and the response was interpolated at the 50% value to determine a concentration for protein abundance at 50% (IC50) the untreated control.

[2] = Cell Titer Glo 2.0 cell viability assay; details: human, K562 cells
[3] = tested on: HiBiT-tagged HTT protein in K562 cells; assay: HiBiT protein abundance assay, HTT; format: cell-based, human; details: HiBiT-modified K562 cells, 24 hours, luminescence
Protocol: as §1, §2, §3, §4, §5

SMILES | IC50 [1] | IC50 [3] | GI50 at 72 h [2]
Cc1cn2cc(-c3cc4ncn([C@H]5CCN[C@H](C)C5)c(=O)c4s3)cc(F)c2n1 (relative stereo) [Compound 277, 6-{8-fluoro-2-methylimidazo[1,2-a]pyridin-6-yl}-3-[(trans)-2-methylpiperidin-4-yl]thieno[3,2-d]pyrimidin-4-one] | 0.1 to 1 µM | 0.1 to 1 µM | 0.1 to 1 µM
Cc1cn2cc(-c3cc4ncn([C@H]5CCN[C@@H](C)C5)c(=O)c4s3)cc(F)c2n1 (relative stereo) [Compound 278, 6-{8-fluoro-2-methylimidazo[1,2-a]pyridin-6-yl}-3-[(cis)-2-methylpiperidin-4-yl]thieno[3,2-d]pyrimidin-4-one hydrochloride] | 0.1 to 1 µM | 0.1 to 1 µM | 0.1 to 1 µM
Cc1cc(-c2cc(=O)n3cc(N4CCN(C)CC4)sc3n2)cc2cn(C)nc12 [Compound 109, 7-(2,7-dimethyl-2H-indazol-5-yl)-2-(4-methylpiperazin-1-yl)-5H-thiazolo[3,2-a]pyrimidin-5-one] | > 10 µM | > 10 µM | 1 to 10 µM
Cc1cc(-c2cc(=O)n3nc(N4CCN(C)CC4)sc3n2)cc2cn(C)nc12 [Compound 157, 7-(2,7-dimethyl-2H-indazol-5-yl)-2-(4-methylpiperazin-1-yl)-5H-[1,3,4]thiadiazolo[3,2-a]pyrimidin-5-one] | > 10 µM | > 10 µM | > 10 µM
Cc1cn2cc(-c3cc(=O)n4nc(N5CCN(C)CC5)sc4n3)cc(F)c2n1 [Compound 159, 7-(8-fluoro-2-methylimidazo[1,2-a]pyridin-6-yl)-2-(4-methylpiperazin-1-yl)-5H-[1,3,4]thiadiazolo[3,2-a]pyrimidin-5-one] | 1 to 10 µM | 1 to 10 µM | 1 to 10 µM
Cc1cc(-c2nn3c(=O)cc(N4CCNCC4)nc3s2)cc2cn(C)nc12 [Compound 206, 2-(2,7-dimethyl-2H-indazol-5-yl)-7-(piperazin-1-yl)-5H-[1,3,4]thiadiazolo[3,2-a]pyrimidin-5-one] | 1 to 10 µM | 1 to 10 µM | 1 to 10 µM
Cc1cn2cc(-c3cn4c(=O)cc(N5CCNC6(CC6)C5)nc4s3)cc(F)c2n1 [Compound 208, 2-(8-fluoro-2-methylimidazo[1,2-a]pyridin-6-yl)-7-(4,7-diazaspiro[2.5]octan-7-yl)-5H-thiazolo[3,2-a]pyrimidin-5-one] | 1 to 10 µM | 1 to 10 µM | 1 to 10 µM
Cc1cn2cc(-c3cc(=O)n4nc(N5CCNC6(CC6)C5)sc4n3)cc(F)c2n1 [Compound 209, 7-(8-fluoro-2-methylimidazo[1,2-a]pyridin-6-yl)-2-(4,7-diazaspiro[2.5]octan-7-yl)-5H-[1,3,4]thiadiazolo[3,2-a]pyrimidin-5-one] | 1 to 10 µM | 1 to 10 µM | 1 to 10 µM
Cc1cn2nc(-c3cc(=O)n4cc(N5CCNC6(CC6)C5)sc4n3)cc(C)c2n1 [Compound 211, 7-(2,8-dimethylimidazo[1,2-b]pyridazin-6-yl)-2-(4,7-diazaspiro[2.5]octan-7-yl)-5H-thiazolo[3,2-a]pyrimidin-5-one] | 1 to 10 µM | 1 to 10 µM | 1 to 10 µM
Cc1cn2nc(-c3cn4c(=O)cc(N5CCNC6(CC6)C5)nc4s3)cc(C)c2n1 [Compound 212, 2-(2,8-dimethylimidazo[1,2-b]pyridazin-6-yl)-7-(4,7-diazaspiro[2.5]octan-7-yl)-5H-thiazolo[3,2-a]pyrimidin-5-one] | 1 to 10 µM | 1 to 10 µM | 1 to 10 µM
Cc1cn2cc(-c3cn4c(=O)cc(N5CCNCC5)nc4s3)cc(F)c2n1 [Compound 213, 2-(8-fluoro-2-methylimidazo[1,2-a]pyridin-6-yl)-7-(piperazin-1-yl)-5H-thiazolo[3,2-a]pyrimidin-5-one] | > 10 µM | > 10 µM | > 10 µM
Cc1cn2cc(-c3nn4c(=O)cc(N5CCNC6(CC6)C5)nc4s3)cc(F)c2n1 [Compound 216, 2-(8-fluoro-2-methylimidazo[1,2-a]pyridin-6-yl)-7-(4,7-diazaspiro[2.5]octan-7-yl)-5H-[1,3,4]thiadiazolo[3,2-a]pyrimidin-5-one] | 1 to 10 µM | 1 to 10 µM | 1 to 10 µM
Cc1cn2cc(-c3nn4c(=O)cc(N5CCN(C)CC5)nc4s3)cc(F)c2n1 [Compound 217, 2-(8-fluoro-2-methylimidazo[1,2-a]pyridin-6-yl)-7-(4-methylpiperazin-1-yl)-5H-[1,3,4]thiadiazolo[3,2-a]pyrimidin-5-one] | 1 to 10 µM | 1 to 10 µM | 1 to 10 µM
Cc1cn2cc(-n3cnc4nc(N5CCN(C)CC5)sc4c3=O)cc(F)c2n1 [Compound 228, 6-(8-fluoro-2-methylimidazo[1,2-a]pyridin-6-yl)-2-(4-methylpiperazin-1-yl)thiazolo[4,5-d]pyrimidin-7(6H)-one] | 1 to 10 µM | 1 to 10 µM | 1 to 10 µM
Cc1cn2cc(-n3cnc4nc(N5CCNCC5)sc4c3=O)cc(C(F)(F)F)c2n1 [Compound 229, 6-(2-methyl-8-(trifluoromethyl)imidazo[1,2-a]pyridin-6-yl)-2-(piperazin-1-yl)thiazolo[4,5-d]pyrimidin-7(6H)-one] | > 10 µM | > 10 µM | > 10 µM
Cc1cn2cc(-n3cnc4nc(N5CCN(C)CC5)sc4c3=O)cc(C(F)(F)F)c2n1 [Compound 230, 6-(2-methyl-8-(trifluoromethyl)imidazo[1,2-a]pyridin-6-yl)-2-(4-methylpiperazin-1-yl)thiazolo[4,5-d]pyrimidin-7(6H)-one] | > 10 µM | > 10 µM | > 10 µM

The next lines start with results.

IC50 [1] | IC50 [3] | SMILES | GI50 at 72 h [2]
1 to 10 µM | 1 to 10 µM | Cc1cn2cc(-c3cc4ncn([C@H]5CCNC[C@@H]5F)c(=O)c4s3)cc(F)c2n1 (relative stereo) [Compound 272, trans-6-{8-fluoro-2-methylimidazo[1,2-a]pyridin-6-yl}-3-[3-fluoropiperidin-4-yl]thieno[3,2-d]pyrimidin-4-one] | > 10 µM
1 to 10 µM | 1 to 10 µM | Cc1cn2cc(-c3cc4ncn([C@H]5CCNC[C@H]5F)c(=O)c4s3)cc(F)c2n1 (relative stereo) [Compound 273, cis-6-{8-fluoro-2-methylimidazo[1,2-a]pyridin-6-yl}-3-[3-fluoropiperidin-4-yl]thieno[3,2-d]pyrimidin-4-one] | 1 to 10 µM
> 10 µM | > 10 µM | Cc1cn2cc(-c3cc(=O)n4cc(N5CCNC6(CC6)C5)sc4n3)cc(F)c2n1 [Compound 207, 7-(8-fluoro-2-methylimidazo[1,2-a]pyridin-6-yl)-2-(4,7-diazaspiro[2.5]octan-7-yl)-5H-thiazolo[3,2-a]pyrimidin-5-one] | > 10 µM
1 to 10 µM | 1 to 10 µM | Cc1cc(-c2nn3c(=O)cc(N4CCN(C)CC4)nc3s2)cc2cn(C)nc12 [Compound 210, 2-(2,7-dimethyl-2H-indazol-5-yl)-7-(4-methylpiperazin-1-yl)-5H-[1,3,4]thiadiazolo[3,2-a]pyrimidin-5-one] | 1 to 10 µM
> 10 µM | > 10 µM | Cc1cn2cc(-c3nn4c(=O)cc(N5CCNCC5)nc4s3)cc(F)c2n1 [Compound 214, 2-(8-fluoro-2-methylimidazo[1,2-a]pyridin-6-yl)-7-(piperazin-1-yl)-5H-[1,3,4]thiadiazolo[3,2-a]pyrimidin-5-one] | 1 to 10 µM
1 to 10 µM | 1 to 10 µM | Cc1cn2cc(-c3nn4c(=O)cc(N5CCN(C)C6(CC6)C5)nc4s3)cc(F)c2n1 [Compound 218, 2-(8-fluoro-2-methylimidazo[1,2-a]pyridin-6-yl)-7-(4-methyl-4,7-diazaspiro[2.5]octan-7-yl)-5H-[1,3,4]thiadiazolo[3,2-a]pyrimidin-5-one] | 1 to 10 µM
> 10 µM | > 10 µM | Cn1cc2cc(-n3cnc4nc(N5CCNCC5)sc4c3=O)ccc2n1 [Compound 225, 6-(2-methyl-2H-indazol-5-yl)-2-(piperazin-1-yl)thiazolo[4,5-d]pyrimidin-7(6H)-one] | > 10 µM
0.1 to 1 µM | 0.1 to 1 µM | Cc1cn2cc(-n3cnc4nc(N5CCNCC5)sc4c3=O)cc(F)c2n1 [Compound 226, 6-(8-fluoro-2-methylimidazo[1,2-a]pyridin-6-yl)-2-(piperazin-1-yl)thiazolo[4,5-d]pyrimidin-7(6H)-one] | 0.1 to 1 µM

Reference: patent publication US20240366612A1, “COMPOUNDS AND METHODS FOR MODULATING NUCLEIC ACID SPLICING” (REMIX THERAPEUTICS INC., priority 2021, published 2024)
